Results: publication PMC5595280, “Cytotoxicity and anti-tumor effects of new ruthenium complexes on triple negative breast cancer cells” (PLoS ONE, 2017)

What was measured:
[1] = tested on: MDA-MB-231 cells; assay: MTT cell proliferation assay; type: cell-based, human; settings: 24 h of incubation, read-out: IC50 ±SEM MDA-MB-231
Procedure: (§1) MDA-MB-231 human breast tumor cells and MCF7 human breast tumor cells, obtained from Rio de Janeiro Cell Bank, were maintained at 37°C in 5% CO2 in DMEM medium containing fetal bovine serum (FBS) 10% (Vitrocell). MCF-10A, a non-tumor breast cell line, obtained from Rio de Janeiro Cell Bank, was cultivated in DMEM/F12 medium containing horse serum (HS) 5%, EGF (0.02 mg/mL); hydrocortisone (0.05 mg/mL); cholera toxin (0.001 mg/mL) and insulin (0.01 mg/mL). Both media contained penicillin (100 UI/mL), streptomycin ([…]) and L-glutamine (2 mM).
(§2) Proliferation assays were performed as described earlier. Briefly, cells lines were prepared in a concentration of 1x10^4 cells/100 μL, in complete medium (with 10% FBS), and plated on sterile 96-well plates for 24 h. The culture medium was removed from the wells and a new one, supplemented with 10% FBS and containing different concentrations of (1) [Ru(SO4)(dppb)(bipy)] (2) [Ru(CO3)(dppb)(bipy)], (3), [Ru(C2O4)(dppb)(bipy)], or (4) [Ru(CH3CO2)(dppb)(bipy)]PF6, was added to the wells. Cells were incubated for 24 h under the same conditions as described above. Cell proliferation assay was performed in comparison with untreated control. After incubation, the culture medium of each well was removed and a solution containing MTT (1 mg/mL) was added (100 μL/well). The plates were then kept at 37°C for 4 h and the formed crystals were dissolved in DMSO. The absorbance was read on an ELISA plate reader at a wavelength of 540 nm. […] The selectivity index (SI) was calculated as the ratio IC50 (MCF-10A) / IC50 (MDA-MB-231).
(§3) Each experiment was repeated three times in triplicate and a standard error mean was calculated. Shapiro-Wilk’s test was used to verify data normality. As normal distribution was present, the results were compared statistically with a one-way or two-way analysis of variance (ANOVA). […] The data were analysed and IC50 calculations were made using Hill’s equation in the GraphPad Prism software (version 6.05).

[2] = tested on: MCF-10A cells; assay: MTT cell proliferation assay; type: cell-based, human; settings: 24 h of incubation, read-out: IC50 ±SEM MCF-10A
Procedure: as §1, §2, §3

[3] = tested on: MCF-7 cells; assay: MTT cell proliferation assay; type: cell-based, human; settings: 24 h of incubation, read-out: IC50 ±SEM MCF-7
Procedure: as §1, §2, §3

[4] = tested on: MDA-MB-231 cells; assay: Cell morphology (inverted microscope); type: cell-based, human; settings: 24 h
Procedure: (§4) Exponentially growing MDA-MB-231, MCF-7 or MCF-10A cells were harvested, counted and seeded (1x10^5 cells/mL) and plated on sterile 12-well plates for 24 h. Cells were allowed to grow at 37°C in 5% CO2 overnight and then, treated or not (control) with different concentrations of the complexes (1–4) for 2 and 24 h. Cell morphology was examined under an inverted microscope (Nikon, T5100) with amplification of 100×.
(§5) In this work the cytotoxicity of the complexes was evaluated against the MDA-MB-231, MCF-7 and MCF-10A cells by morphology, clonogenic and MTT assays (Fig 2, Table 1). To investigate the effects on cell morphology, the complexes were incubated with cells at concentrations of 25 and 50 μM for 24 h.

[5] = tested on: MCF-10A cells; assay: Cell morphology (inverted microscope); type: cell-based, human; settings: 24 h; for effect on cell morphology: 25 and 50 μM
Procedure: as §4, §5

[6] = tested on: MCF-7 cells; assay: Cell morphology (inverted microscope); type: cell-based, human; settings: MCF-7, 25 and 50 μM, 24 h
Procedure: as §4, §5

[7] = biological target: HSA (Homo sapiens, UniProt P02768); assay: HSA tryptophan fluorescence quenching; type: binding; settings: for ΔS (HSA): complex-HSA system
Chain of HSA (P02768 25-609): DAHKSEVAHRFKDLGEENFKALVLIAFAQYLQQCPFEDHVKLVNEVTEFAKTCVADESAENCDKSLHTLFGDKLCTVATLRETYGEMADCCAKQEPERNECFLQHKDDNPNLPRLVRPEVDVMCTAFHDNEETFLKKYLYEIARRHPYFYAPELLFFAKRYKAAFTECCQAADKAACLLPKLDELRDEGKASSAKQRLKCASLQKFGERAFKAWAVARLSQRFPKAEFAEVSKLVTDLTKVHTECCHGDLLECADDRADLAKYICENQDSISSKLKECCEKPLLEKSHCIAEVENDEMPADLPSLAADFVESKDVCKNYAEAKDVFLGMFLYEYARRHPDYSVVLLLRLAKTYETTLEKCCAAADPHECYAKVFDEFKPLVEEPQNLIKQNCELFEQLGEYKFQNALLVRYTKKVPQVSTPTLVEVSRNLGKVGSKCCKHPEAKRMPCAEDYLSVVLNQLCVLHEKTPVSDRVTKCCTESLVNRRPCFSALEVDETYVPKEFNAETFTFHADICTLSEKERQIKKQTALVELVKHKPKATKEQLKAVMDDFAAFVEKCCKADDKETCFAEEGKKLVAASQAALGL
Procedure: For fluorescence measurements, the HSA concentration in Tris–HCl buffer was kept constant in all the samples, while the complex concentration was increased from 0.50 to 50 μM, and quenching of the emission intensity of the HSA tryptophan residues at 305 nm (excitation wavelength 270 nm) was monitored at different temperatures (25°C and 37°C). The experiments were carried out in triplicate and analysed using the classical Stern-Volmer equation. The binding constant (Kb) and number of complexes bound to HSA (n) were determined by plotting the double log graph of the fluorescence data using: log [(F0-F)/F] = log Kb + nlog[Q]. The thermodynamic parameter (ΔH) was calculated from equation: ln (K2/K1) = [(1/T1)-(1/T2)]ΔH/R, where K1 and K2 are the binding constants at temperatures T1 and T2, and R is the gas constant. Furthermore, the change in free energy (ΔG) and entropy (ΔS) were calculated from the following equation: ΔG = -RT lnK = ΔH − TΔS.
Human serum albumin (HSA) is the most abundant protein in the blood and cerebrospinal fluid and plays a fundamental role in the distribution of essential transition metal ions in the human body. Moreover, HSA is an important physiological transporter of the essential metal ions Cu^2+, and Zn^2+ in the bloodstream. […] The fluorescence spectrum is essentially that of tryptophan residue; contribution of tyrosine is relatively minor. In order to determine the protein binding affinity of complexes (1–4), tryptophan emission quenching experiments were carried out by adding the complexes in increasing concentration (0–50 μM) to HSA at two different temperatures and following the decrease in fluorescence intensities (Fig 6D). The results point out a good linearity at the two different temperatures. The binding constants, KSV, calculated from the Stern-Volmer equation are presented on Table 2.

[8] = Water-octanol partition coefficient (stir-flask method); type: physicochemical; settings: 24 h shaking, 37°C
Procedure: The water-octanol partition coefficients were determined by use of the stir-flask method. The complex was added in a mixture with equal volumes of water and octanol shaking by 24 h at 100 rpm and 37°C, samples were centrifuged for 5min at 300rpm, the organic and aqueous phases were separated. The concentration of drug in each phase was measured spectrophotometrically in order to determine values of P = [drug] (in octanol)/[drug] (in water).

[9] = tested on: DNA; design: method as in not given; settings: order of magnitude reported for classical intercalators; ref not given; cited from earlier work
[10] = tested on: pBR322 plasmid DNA; assay: Agarose gel electrophoresis of plasmid DNA; type: binding; settings: Ri 0.50, 18 h, 37°C
Procedure: Ten microliters of pBR322 plasmid DNA in a Tris-HCl buffer were incubated at 37°C for 18 h with molar ratios between 0.12 and 0.5. After incubation, 5 μL of each sample was separated by electrophoresis in a 1% agarose gel for 45 min at 100V using a Tris borate–EDTA buffer (TBE) and stained with ethidium bromide ([…] ethidium bromide per 40 mL agarose gel mixture). Samples of DNA with DMSO were used as controls. The DNA bands were visualized as an image using a UV light transilluminator (ChemiDoc MP, BioRad Laboratories).
The influence of the compounds on the tertiary structure of DNA was determined by their ability to modify the electrophoretic mobility of forms of pBR322 plasmid DNA (Fig 6C). Agarose gel electrophoresis was performed using pBR322 plasmid DNA in the absence and presence of the complexes. […] In Ri 0.12 and 0.25 complexes (1–3) show the corresponding open circular, linear and super coiled form. […] This means that the degree of super helicity of the DNA molecules has been altered, in the same way as that described previously for other coordination platinum(II) and palladium (II) compounds containing 7-azaindolyl ligand [36].

Compound	IC50 [1] [µM]	IC50 [2] [µM]	IC50 [3] [µM]	effect on cell morphology ([4]; MDA-MB-231, 25 and 50 μM)	effect on cell morphology [5]	effect on cell morphology [6]	Kq (HSA) ([7]; T 298) [M⁻¹ s⁻¹]	Ksv (HSA) ([7]; T 298)	n (number of binding sites, HSA) ([7]; T 298)	Kq (HSA) ([7]; T 310) [M⁻¹ s⁻¹]	Ksv (HSA) ([7]; T 310)	n (number of binding sites, HSA) ([7]; T 310)	ΔS (HSA) [7] [J.mol^-1K]	Log P [8]	effect on cell morphology / cell density ([5]; 50 μM)	DNA binding constant [9]	effect on cell morphology ([4]; MDA-MB-231, 50 μM)	electrophoretic mobility of super coiled pBR322 band [10]
N.N.[Cl][Pt][Cl] [Cisplatin, reference compound]	2.43 ± 0.2	29.4 ± 0.85	79.18 ± 0.2															
O=S(=O)([O-])[O-].[Ru+2].c1ccc(-c2ccccn2)nc1.c1ccc(P(CCCCP(c2ccccc2)c2ccccc2)c2ccccc2)cc1 [Complex (1), [Ru(SO4)(dppb)(bipy)]]	> 200	42.8 ± 5.02	> 200	did not alter the morphology	altered the morphology	did not alter the morphology	5.26e+13	5.04 ± 0.09 x10^4 M^-1	1.10	4.65e+13	4.45 ± 0.18 x10^4 M^-1	1.06	72.70	0.26 ± 0.06				
O=C([O-])C(=O)[O-].[Ru+2].c1ccc(-c2ccccn2)nc1.c1ccc(P(CCCCP(c2ccccc2)c2ccccc2)c2ccccc2)cc1 [Complex (3), [Ru(C2O4)(dppb)(bipy)]]	> 200	42.2 ± 2.37	> 200	did not alter the morphology		did not alter the morphology	1.63e+13	1.56 ± 0.13 x10^4 M^-1	0.90	1.702e+13	1.63 ± 0.10 x10^4 M^-1	0.85	80.00	0.06 ± 0.008	reduced cell density			
[Cl-].[Cl-].[Ru+2].c1ccc(-c2ccccn2)nc1.c1ccc(P(CCCCP(c2ccccc2)c2ccccc2)c2ccccc2)cc1 [Precursor, cis-[RuCl2(dppb)(bipy)], reference compound]	> 200	81.9 ± 7.87	> 200											-0.40 ± 0.01				
CC[n+]1c(-c2ccccc2)c2cc(N)ccc2c2ccc(N)cc21 [ethidium bromide]																10^6 to 10^7 M^-1		
[Ru(CO3)(dppb)(bipy)] [Complex (2)]	52.7 ± 0.62	31.5 ± 1.06	> 200		did not alter the morphology	did not alter the morphology	2.935e+13	2.81 ± 0.12 x10^4 M^-1	1.00	3.425e+13	3.28 ± 0.14 x10^4 M^-1	0.98	85.80	0.55 ± 0.02			profoundly altered their morphology	increased the electrophoretic mobility
[Ru(phen)2(dppz)]^2+																10^6 to 10^7 M^-1		
